Test results published in PubChem BioAssay (NCI).
“And” between values parts separate entries of the source, which are not always exact repeats. Equal entries are not always repeated.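 Values below derive from 48-hour exposures of cells grown in 96-well plates, with endpoints linearly interpolated between the two concentrations bracketing the appropriate inhibition level. GI50 is the concentration that inhibits growth by half. TGI denotes the concentration required for complete inhibition of growth.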

What was measured:
Assay in all cases: inhibition of tumour cell growth, NCI panel, 48 h
BT-549 breast = system: BT-549 breast
HCT-116 colon = system: HCT-116 colon
EKVX NSCLC = system: EKVX NSCLC
HOP-62 NSCLC = system: HOP-62 NSCLC
SF-539 CNS = system: SF-539 CNS
MOLT-4 leukemia = system: MOLT-4 leukemia
NCI-H460 lung = system: NCI-H460 lung
OVCAR-8 ovarian = system: OVCAR-8 ovarian
NCI/ADR-RES ovarian = system: NCI/ADR-RES ovarian
ACHN renal = system: ACHN renal

SMILES	GI50 (BT-549 breast)	TGI (BT-549 breast)	GI50 (HCT-116 colon)	TGI (HCT-116 colon)	GI50 (EKVX NSCLC)	TGI (EKVX NSCLC)	GI50 (HOP-62 NSCLC)	TGI (HOP-62 NSCLC)	GI50 (SF-539 CNS)	TGI (SF-539 CNS)	GI50 (MOLT-4 leukemia)	TGI (MOLT-4 leukemia)	GI50 (NCI-H460 lung)	TGI (NCI-H460 lung)	GI50 (OVCAR-8 ovarian)	TGI (OVCAR-8 ovarian)	GI50 (NCI/ADR-RES ovarian)	TGI (NCI/ADR-RES ovarian) [µM]	GI50 (ACHN renal)	TGI (ACHN renal)
C/C(=N/O)c1cccc(Nc2cc(-n3nnc4ccccc43)nc3ccccc23)c1	19.5 µM	54.7 µM	10.3 µM	26 µM	8.07 µM	> 32 µM	20.5 µM	44.2 µM	1.62 µM	5.88 µM	4.05 µM	> 40 µM	14.7 µM	46.7 µM	13.5 µM	51.8 µM	8.36 µM	27.9	14.2 µM	46.6 µM
CC(C)=CCN1c2ccccc2NC(=O)CC1C (stereo unspecified)		55 µM				> 100 µM		> 100 µM		> 100 µM		> 100 µM		> 100 µM		> 100 µM		> 100		> 100 µM
C[C@@H](NC(C#N)c1ccco1)c1ccccc1 (stereo partly specified)		> 100 µM		> 100 µM		> 100 µM		> 100 µM		> 100 µM		> 100 µM		> 100 µM		> 100 µM		> 100		> 100 µM
O=C1OCC2=C1C(c1cccc(F)c1)c1cc3c(cc1N2CCO)OCO3 (stereo unspecified)	1.46 µM	> 50 µM	1.53 µM	> 50 µM	3.03 µM	> 50 µM	2.19 µM	> 50 µM	1.13 µM	3.61 µM	3.02 µM	> 50 µM	2.08 µM	> 50 µM	3.18 µM	> 50 µM	2.02 µM	> 50	3.03 µM	> 50 µM
CCSC1=NC2C(N(CC)C(=O)N2CC)N1/N=C/C=C/c1ccccc1[N+](=O)[O-] (stereo unspecified)	0.284 µM	4.23 µM	0.114 µM	> 100 µM	0.314 µM	> 100 µM	0.313 µM	> 100 µM	0.0804 µM	0.736 µM	0.419 µM	> 100 µM	0.228 µM	12.2 µM	0.385 µM	> 100 µM	0.209 µM	> 100	0.121 µM	> 100 µM
Cc1ccc2cnc(N)c(C#Cc3cc(C(=O)Nc4ccc(CN5CCN(C)CC5)c(C(F)(F)F)c4)cnc3C)c2c1	1.94 µM	6.23 µM	0.513 µM	1.39 µM	0.679 µM	1.53 µM	0.887 µM	2.76 µM	0.664 µM	1.32 µM			0.604 µM	1.34 µM	1.11 µM	3.85 µM	1.05 µM	2.9	0.449 µM	1.06 µM
CC(=O)c1c(C(F)(F)F)n([O-])c2ccccc2[n+]1=O	2.48 µM	9.06 µM	1.55 µM	10.5 µM	3.47 µM	8.01 µM	2.34 µM	11.9 µM	2 µM	5.38 µM	0.613 µM	> 100 µM	0.857 µM	10.8 µM	2.96 µM	> 100 µM	1.49 µM	2.93	1.05 µM	12.3 µM
C1CSCCCSCCCSCCCSCCCSCCCSCCCSCCCSC1		> 100 µM		> 100 µM		> 100 µM		> 100 µM		> 100 µM		> 100 µM		> 100 µM		> 100 µM		> 100		> 100 µM
N#C[Se]Cc1cc(-c2ccccc2)n(-c2ccc(S(N)(=O)=O)cc2)n1	1.68 µM	4.55 µM	0.383 µM	1.32 µM	0.688 µM	12.6 µM			1.38 µM	2.77 µM	0.433 µM	4.36 µM	0.264 µM	0.743 µM	1.35 µM	> 23.2 µM	5.51 µM	40	1.98 µM	4.22 µM
O=S(=O)(/N=c1\scc(-c2ccccc2)n1-c1ccccc1)c1ccc(N2N=C3c4ccccc4CC3C2c2ccc(Cl)cc2)cc1 (stereo unspecified)	41.4 µM	> 100 µM	47.5 µM	> 100 µM	61.1 µM	> 100 µM	93.9 µM	> 100 µM	62.6 µM	> 100 µM	18.5 µM	> 100 µM	> 100 µM	> 100 µM	36.1 µM	> 100 µM	51.5 µM	> 100	40.1 µM	> 100 µM
CO/N=C(\COc1ccc2c(c1)[nH]c1ccccc12)c1ccc(OC)cc1	> 100 µM	> 100 µM	28.3 µM	> 100 µM	26 µM	> 100 µM	6.26 µM	64 µM	13.8 µM	> 100 µM	27.9 µM	> 100 µM	21.8 µM	> 100 µM	5.84 µM	27.5 µM	> 100 µM	> 100	18.8 µM	> 100 µM
COc1ccc2c(c1)C(=O)/C(=C/c1cccc(OCC(=O)c3ccccc3)c1)CC2	27.1 µM	> 100 µM	3.52 µM	> 100 µM	13.9 µM	> 100 µM	42.5 µM	> 100 µM	64.7 µM	> 100 µM	3.05 µM	6.82 µM	28.1 µM	> 100 µM	44.1 µM	> 100 µM	5.42 µM	93.9	31.8 µM	> 100 µM
FC(F)(F)c1cccc(-c2nc3nc(Cl)c(Cl)nc3[nH]2)c1		51.8 µM		12.1 µM		23.2 µM		23.5 µM		> 27.7 µM		10.4 µM		> 30.3 µM		> 100 µM		> 100		> 28.2 µM
c1ccc(-c2nc(-c3ccccn3)nc(-c3ccccn3)n2)nc1	44.6 µM	> 100 µM	19.4 µM	78.6 µM	17 µM	> 100 µM	30.4 µM	> 100 µM	40.3 µM	> 100 µM	21.2 µM	> 100 µM	12.1 µM	> 100 µM	21.3 µM	> 100 µM	6.37 µM	> 100	22.1 µM	> 100 µM
Cn1ncc(-c2ccc3c(=O)[nH]nc(CN)c3c2)c1-c1c(F)c(Cl)cc(OC2CC2)c1C#N	14.9 µM and 14.3 µM	30.2 µM and 28.6 µM	13.1 µM and 12.8 µM	29.1 µM and 27.5 µM	14.9 µM and 14 µM	30.5 µM and 29.6 µM	16.1 µM and 13.4 µM	33.7 µM and 27.8 µM	14.4 µM and 13.1 µM	28 µM and 26.7 µM	10.9 µM and 11.7 µM	> 100 µM	13.6 µM and 12.4 µM	28.8 µM and 26.7 µM	13.9 µM and 13.7 µM	27.4 µM and 27.1 µM	35 µM and 25.5 µM	> 100	15.8 µM and 15.3 µM	30.5 µM and 28.9 µM
CC(CO)Nc1cc(-c2[nH]c3cccnc3c2-c2ccc(F)cc2)ccn1 (stereo unspecified)	16.1 µM	> 25 µM	13.4 µM	> 25 µM			> 25 µM	> 25 µM	> 25 µM	> 25 µM	> 25 µM	> 25 µM	8.16 µM	> 25 µM	15.7 µM	> 25 µM	> 25 µM	> 25	3.99 µM	> 25 µM
CCOc1ccccc1CCN=C1NC(=O)/C(=C/c2ccc3ncccc3c2)S1	1.74 µM	> 12.7 µM	0.995 µM	> 9.15 µM			1.44 µM	> 17.6 µM	0.751 µM	2.95 µM	4.02 µM	> 25 µM	0.879 µM	> 25 µM	3.08 µM	> 25 µM	1.28 µM	> 22.7	1.45 µM	> 25 µM
COc1cc(C)ccc1C(=O)c1ccc(C)cc1OC	4.23 µM	> 100 µM	3.25 µM	> 100 µM	5.29 µM	> 100 µM	3.11 µM	> 100 µM	2.66 µM	20.6 µM	7.66 µM	> 100 µM	3.39 µM	> 100 µM	4.89 µM	> 100 µM	1.31 µM	8.14	8.21 µM	> 100 µM
N#CC(C#N)=C/C=C(\Cl)c1ccc(Cl)cc1	8.32 µM	22 µM	1.58 µM	3.76 µM	23.8 µM	55.4 µM	14.3 µM	31.3 µM	4.66 µM	15.9 µM	0.696 µM	> 100 µM	25.1 µM	> 100 µM	10.1 µM	31.4 µM	4.57 µM	16.2	9.96 µM	37.2 µM
CN(C)c1cc2ccccc2oc1=O		> 100 µM		> 100 µM		> 100 µM		> 100 µM		> 100 µM		> 100 µM		> 100 µM		> 100 µM		> 100		> 100 µM
CCN1C(=O)N(CC)C2C1NN=c1s/c(=C\c3ccc(Cl)cc3Cl)c(=O)n12 (stereo unspecified)	0.0302 µM	2.48 µM	0.0317 µM		0.0423 µM	> 100 µM	0.0469 µM	> 72.8 µM	0.0241 µM	0.0698 µM	0.0421 µM	> 64.5 µM	0.0347 µM	15.8 µM	0.0368 µM	36.6 µM	0.0301 µM	> 32	0.0513 µM	> 51.2 µM
COc1ccc(-c2noc(C(=O)O)c2-c2cc(OC)c(OC)c(OC)c2)cc1	17.9 µM	> 100 µM	0.752 µM	> 100 µM	4.77 µM	> 100 µM	3.82 µM	> 100 µM	2.45 µM	20.5 µM	4.91 µM	> 100 µM	2.52 µM	> 100 µM	5.61 µM	> 100 µM	1.47 µM	> 100	7.42 µM	> 100 µM
Cc1ccc(S(=O)(=O)SC/C=C\CSS(=O)(=O)c2ccc(C)cc2)cc1		25.4 µM	5.31 µM and 19.9 µM	29.7 µM and 41.4 µM		> 100 µM		> 100 µM	7 µM and 17.2 µM	43.6 µM and 33.3 µM		14.6 µM and 72.6 µM		> 94 µM and 99.4 µM		46.8 µM and 33.9 µM		> 100		> 100 µM and 83.6 µM
COc1cc(/C=C/C(=O)/C=C/c2cc(OC)c3c(c2)OCO3)cc2c1OCO2	3.02 µM	8.81 µM	1.21 µM	2.78 µM	> 100 µM	> 100 µM	4.46 µM	> 100 µM	22.6 µM	> 100 µM	9 µM	> 100 µM	> 100 µM	> 100 µM	2.83 µM	12.9 µM	52.8 µM	> 100	7.25 µM	> 100 µM
O=[N+]([O-])c1ccccc1N=Nc1c(O)[nH]c2cccc(C(F)(F)F)c12		> 100 µM		> 100 µM		> 100 µM		82.8 µM				> 100 µM		> 100 µM		> 100 µM		> 100		40.1 µM
CNC(=S)Nc1ccc(OC)c2ccccc12		> 10 µM		> 10 µM				> 10 µM		> 10 µM		> 10 µM				> 10 µM		> 10		> 10 µM
CC1=C2C(=C[C@@](C)(CO)[C@@H]2OC(=O)N(C)CCN(C)C(=O)OC(C)(C)C)C(=O)[C@](C)(O)C12CC2	6.61 µM	20.6 µM	2.76 µM	> 50 µM	10.7 µM	29.1 µM			7.92 µM	21.2 µM	31.5 µM	> 50 µM	1.45 µM	5.42 µM	6.51 µM	45.7 µM	3.05 µM	23.7	2.6 µM	32.6 µM
CCC1(O)C(=O)OCc2c1cc1n(c2=O)Cc2cc3ccccc3nc2-1 (stereo unspecified)		> 41.4 µM		0.614 µM		0.488 µM		0.319 µM	0.0107 µM	> 100 µM				10.7 µM		15.7 µM		2.15		0.519 µM
CC(=O)c1c(O)c(C)c(O)c(Cc2c(O)c3c(c(C(=O)/C=C/c4ccccc4)c2O)OC(C)(C)C=C3)c1O		8.77 µM		10.2 µM		12.9 µM				26.5 µM		16.8 µM		16.4 µM		23.7 µM		15.8		34.3 µM
